Source: PMC9698323, “Interaction of Destruxin A with Three Silkworm Proteins: BmCRT, BmDPP3, and BmPDIA5” (Molecules, 2022)
Square brackets hold non-standard residues; d marks the D form. Peptide text beside a SMILES is read from it. dLac(3-vinyl) = C=CC[C@@H](O)C(=O)O; NMeV = CN[C@H](C(=O)O)C(C)C; NMeA = CN[C@@H](C)C(=O)O; βAla = NCCC(=O)O

What was measured:
BmCRT (calreticulin) = molecular target: T1, BmCRT (calreticulin) (Bombyx mori, UniProt Q7Z1E6); experiment: SPR (Biacore 8K), multi-cycle kinetics; type: binding
T1 construct: gene crt
T1 sequence (Q7Z1E6 20-398): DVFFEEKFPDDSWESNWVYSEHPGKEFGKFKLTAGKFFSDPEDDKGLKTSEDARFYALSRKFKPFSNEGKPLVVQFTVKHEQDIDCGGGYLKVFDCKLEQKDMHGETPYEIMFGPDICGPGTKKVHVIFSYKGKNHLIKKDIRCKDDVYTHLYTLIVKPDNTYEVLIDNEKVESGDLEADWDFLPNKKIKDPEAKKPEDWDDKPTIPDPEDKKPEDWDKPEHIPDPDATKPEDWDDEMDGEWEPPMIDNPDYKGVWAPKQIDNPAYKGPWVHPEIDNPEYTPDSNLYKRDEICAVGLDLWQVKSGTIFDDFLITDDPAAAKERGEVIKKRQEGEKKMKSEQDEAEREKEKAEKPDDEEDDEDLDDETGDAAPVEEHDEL

[1] = molecular target: BmPDIA5 (protein disulfide isomerase A5); experiment: SPR (Biacore 8K), multi-cycle kinetics; type: binding, Bombyx mori; details: 1 × PBSP, 5% DMSO; DA 15.6-250 µmol/L

`C=CC[C@H]1OC(=O)CCNC(=O)[C@H](C)N(C)C(=O)[C@H](C(C)C)N(C)C(=O)[C@H]([C@@H](C)CC)NC(=O)[C@@H]2CCCN2C1=O` [DA, Destruxin A] (cyclo([dLac(3-vinyl)]PI[NMeV][NMeA][βAla])) showed a Kd (BmCRT (calreticulin)) of 198 µM and a Kd [1] of 92.6 µM.
